{
  "source": "patent US11702479B2",
  "about": "“Anti-jagged antibodies and methods of use” (Genentech, Inc., priority 2012, dated 2023)",
  "test_system": "Jagged1-induced signaling through Notch1",
  "experiment": "Co-culture Notch reporter (luciferase) assay, Jagged1-induced",
  "assay_type": "cell-based",
  "conditions": "NIH-3T3 co-culture; antibody 0.4-50 μg/ml (Example 4) or 0.016-50 μg/ml (Example 5)",
  "procedure": "To determine whether anti-Jagged antibodies can act as antagonists of Jagged-induced Notch signaling, co-culture experiments were performed essentially as described by Wu et al., Nature 464, 1052-1057 (15 April 2010). NIH-3T3 cells engineered to express Jagged1, as the Notch ligand, were co-cultured with NIH 3T3 cells that stably express Notch1 and that were transiently transfected to express a Notch-responsive TP-1 (12× CSL) firefly luciferase reporter and a constitutively expressed Renilla luciferase reporter (pRL-CMV, Promega).\nAntibodies C and D, and their respective affinity-matured descendants, bind to both human and murine Jagged1, and human and murine Jagged2 (e.g., FIG. 10A). […] Signaling was induced by Jagged1 (FIG. 13B, dark gray columns) or by Jagged2 (FIG. 13B, light gray columns) and inhibition was determined as described in Example 4 using the antibodies at concentrations of 0.016-50 μg/ml. Controls included cultures that were not stimulated with ligand and not treated with antibody ([…], Untreated), not stimulated with ligand (FIG. 13B, No Stimulation or 3T3P), treated with 5-10 μg/ml isotype control antibody (FIG. 13B, agD or gD), stimulated with ligand but not treated with antibody (Stim/no AB or No Ab), treated with 5 μM of the gamma-secretase inhibitor DAPT or the DAPT vehicle control of DMSO.",
  "data": [
    {"smiles": "C[C@H](NC(=O)Cc1cc(F)cc(F)c1)C(=O)N[C@H]1N=C(c2ccccc2)c2ccccc2N(C)C1=O", "note": "[Compound E]", "values": [
      {"measurement": "inhibition of Jagged1-induced Notch reporter expression", "result": "reduced to background levels"}
    ]}
  ]
}
